How the values were obtained:
[1] = target: T1, yPDE2 (high-affinity phosphodiesterase type 2) (Saccharomyces cerevisiae, UniProt P06776); experiment: HPLC-UV assay of cAMP hydrolysis; Ki converted from I50 (competitive equation); format: biochemical; conditions: read-out: Inhibitors
T1 construct: gene PDE2
T1 sequence (P06776 1-526): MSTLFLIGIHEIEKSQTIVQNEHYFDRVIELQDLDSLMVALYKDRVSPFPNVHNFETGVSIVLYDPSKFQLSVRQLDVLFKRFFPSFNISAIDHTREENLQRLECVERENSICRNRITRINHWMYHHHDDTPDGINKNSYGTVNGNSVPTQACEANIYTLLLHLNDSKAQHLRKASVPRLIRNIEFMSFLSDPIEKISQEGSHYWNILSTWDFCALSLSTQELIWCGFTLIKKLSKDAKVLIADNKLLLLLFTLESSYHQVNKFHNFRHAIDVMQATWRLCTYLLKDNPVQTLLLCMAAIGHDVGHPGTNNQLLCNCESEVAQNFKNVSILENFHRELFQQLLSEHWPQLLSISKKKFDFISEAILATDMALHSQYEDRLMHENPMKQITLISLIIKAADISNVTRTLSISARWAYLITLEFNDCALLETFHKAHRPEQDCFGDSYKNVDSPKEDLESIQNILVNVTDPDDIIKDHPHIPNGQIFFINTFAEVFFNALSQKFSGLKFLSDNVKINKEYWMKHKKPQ

[2] = target: T1, yPDE2 (high-affinity phosphodiesterase type 2); experiment: HPLC-UV assay of cAMP hydrolysis; Lineweaver-Burk and Km app/Km plot at several inhibitor concentrations; format: biochemical; conditions: read-out: Inhibitors

| SMILES | Ki [1] | Ki [2] |
| --- | --- | --- |
| Oc1cc(O)cc(/C=C/c2ccc(O)cc2O)c1 [oxyresveratrol] | 46 ± 4 µM | – |
| Oc1ccc(/C=C/c2cc(O)cc(O)c2)cc1 [resveratrol] | – | 63 ± 3 µM |
| Oc1cc(O)cc(/C=C/c2ccc(O)c(O)c2)c1 [piceatannol] | 50 ± 5 µM | – |
| O=C(Nc1c(Cl)cncc1Cl)c1ccc(OC(F)F)c(OCC2CC2)c1 [roflumilast] | 0.3 ± 0.02 µM | – |
